pEC50: −log10 of the molar value.
Tested on: panel of cancer cell lines
Test: Cell viability (CellTiter-Glo) dose-response across cancer cell line panel;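 for pEC50: after 72 h compound incubation with CellTiter-Glo ATP readout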
Format: cell-based, human
Conditions: for pEC50: Homo sapiens
Excerpt: Next, we explored the effect of CSN5 inhibition on the viability of cancer cells. To obtain a comprehensive picture, we generated dose–response curves with a CSN5 inhibitor across more than 500 cancer cell lines in a previously described standardized setting[47] (Supplementary Data 1).
A standardized CellTiter-Glo Assay (Promega #G7570) based on the quantification of ATP was applied according to the manufacturer's protocol to measure the amount of viable cells in culture. In brief, cells were seeded into 384-well plates at optimal density for each cell line. After 4 h, compounds were added at different concentrations in growth medium and incubated for another 72 h in a humidifying chamber at 37 °C and 5% CO2. […] EC50 values were calculated from the plot of percentage of inhibition versus inhibitor concentration using the nonlinear regression analysis software Origin 7.5SR6 (OriginLab Corp.).

- pEC50 (SR-786, SR-786): 8.65
- pEC50 (ST486, ST486): 8.20
- pEC50 (SU-DHL10, SU-DHL-10): 7.84
- pEC50 (SU-DHL-4, SU-DHL-4): 8.48
- pEC50 (SU-DHL-8, SU-DHL-8): 8.42
- pEC50 (SUM52, cell line SUM-52): 8.26
- pEC50 (SUM52PE): 8.21
- pEC50 (SUP-M2, SUP-M2): 8.48
- pEC50 (SW480, SW480): 8.15
- pEC50 (SW837, SW837): 8.23
- pEC50 (SW948, SW948): 8.14
- pEC50 (SW1088, SW 1088): 8.23
- pEC50 (SW1271, cell line SW 1271): 7.67
- pEC50 (SW1353, SW 1353): 7.41
- pEC50 (SW1417, SW1417): 8.19
- pEC50 (SW1573, SW 1573): 7.69
- pEC50 (SW1783, SW 1783): 7.79
- pEC50 (SW1990, SW 1990): 8.06
- pEC50 (SW-620, SW620): 8.10
- pEC50 (T47D, T-47D): 7.98
- pEC50 (T84, T84): 7.92
- pEC50 (T98G): 8.02
- pEC50 (T-24, T24): 8.01
- pEC50 (TC-71, TC-71): 7.94
- pEC50 (TE-4): 8.23
- pEC50 (TE-6, TE-6): 7.36
- pEC50 (TE-10, TE-10): 7.95
- pEC50 (TE-11, cell line TE-11): 7.54
- pEC50 (TE-15, cell line TE-15): 7.78
- pEC50 (TEN): 8.00
- pEC50 (TF-1, TF-1): 8.78
- pEC50 (THP-1, THP-1): 8.18
- pEC50 (TOV21G, cell line TOV-21G): 8.37
- pEC50 (TOV112D, TOV-112D): 7.54
- pEC50 (TT2609-C02): 7.71
- pEC50 (U266B1): 8.47
- pEC50 (U-118-MG, U-118 MG): 8.11
- pEC50 (U-251, U-251 MG): 8.16
- pEC50 (U-937, U-937): 8.24
- pEC50 (UACC-62, UACC-62): 7.71
- pEC50 (UACC-257, UACC-257): 7.96
- pEC50 (UMUC3, UM-UC-3): 7.82
- pEC50 (VM-CUB-1, VM-CUB1): 7.99
- pEC50 (VMRC-RCW): 8.28
- pEC50 (WM 266-4, WM-266-4): 7.61
- pEC50 (WM793, WM-793): 7.81
- pEC50 (WM983B, WM-983B): 8.06
- pEC50 (WM-88): 8.11
- pEC50 (WM-115, WM-115): 8.20
- pEC50 (WM-1799, WM1799): 8.13
- pEC50 (WSUDLCL2, WSU-DLCL2): 8.38
- pEC50 (YAPC): 7.64
- pEC50 (YKG-1, YKG1): 8.14
- pEC50 (YMB-1): 7.79
- pEC50 (Z-138, cell line Z-138): 8.24
- pEC50 (ZR-75-1, ZR-75-1): 7.68
- pEC50 (ZR-75-30, ZR-75-30): 7.99
- pEC50 (cell line AGS): 8.03
- pEC50 (cell line BDCM): 8.10
- pEC50 (cell line EB1): 8.19
- pEC50 (cell line EB2): 8.19
- pEC50 (cell line GCT): 7.72
- pEC50 (cell line GI-1): 8.05
- pEC50 (cell line H4): 7.94
- pEC50 (cell line HH): 8.52
- pEC50 (cell line HuG1-N): 8.74
- pEC50 (cell line JHH-5): 7.77
- pEC50 (cell line KS-1): 8.00
- pEC50 (cell line KURAMOCHI): 7.51
- pEC50 (cell line LC-1/sq-SF): 7.73
- pEC50 (cell line LP-6): 7.99
- pEC50 (cell line MEL-HO): 8.28
- pEC50 (cell line MJ): 8.55
- pEC50 (cell line MOG-G-UVW): 7.70
- pEC50 (cell line Mel285): 8.09
- pEC50 (cell line NCI-H2330): 7.49
- pEC50 (cell line OMM2.3): 7.92
- pEC50 (cell line OMM2.5): 7.66
- pEC50 (cell line PC-3): 7.85
- pEC50 (cell line RERF-LC-MS): 7.38
- pEC50 (cell line RKO): 8.07
- pEC50 (cell line RL): 8.49
- pEC50 (cell line T778): 7.73
- pEC50 (cell line TE 617.T): 8.16
- pEC50 (cell line TE-1): 7.81
- pEC50 (cell line TE-5): 8.10
- pEC50 (cell line VMRC-RCZ): 8.07
- pEC50 (cell line WS1): 7.75
SMILES: CC(C)C[C@H](NC(=O)[C@H](Cc1ccccc1)NC(=O)c1cnccn1)B(O)O [Bortezomib]
- AMAX (Hs 611.T): -95.5359
- AMAX (Hs 729): -96.5684
- AMAX (Hs 936.T): -95.7878
- AMAX (Hs 940.T): -97.1382
- AMAX (IGR-1): -97.3166
- AMAX (JHOM-1): -95.2005
- AMAX (JVM-3): -96.4391
- AMAX (KARPAS-620): -98.4285
- AMAX (KCL-22): -97.2427
- AMAX (KHM-1B): -96.7668
- AMAX (KLE): -91.799
- AMAX (KMS-28BM): -96.7467
- AMAX (KO52): -96.777
- AMAX (KU812): -97.0553
- AMAX (KYM-1): -96.8984
- AMAX (KYO-1): -96.2465
- AMAX (Ki-JK): -96.7338
- AMAX (L-363): -96.7867
- AMAX (LAMA-84): -97.7452
- AMAX (LCLC-97TM1): -96.2648
- AMAX (LCLC-103H): -95.0382
- AMAX (LMSU): -95.8427
- AMAX (LU99): -96.2849
- AMAX (LXF-289): -97.2241
- AMAX (Li-7): -96.9283
- AMAX (MB 157): -95.9545
- AMAX (MHH-NB-11): -96.8993
- AMAX (MOLM-16): -96.6028
- AMAX (MOLP-8): -96.4824
- AMAX (MONO-MAC-1): -98.0152
- AMAX (MONO-MAC-6): -96.8971
- AMAX (NCI-H28): -96.1421
- AMAX (NCI-H841): -95.8407
- AMAX (NCI-H1184): -95.7721
- AMAX (NCI-H1341): -97.2357
- AMAX (NCI-H1869): -96.9482
- AMAX (NCI-H2073): -96.9774
- AMAX (NOMO-1): -95.3675
- AMAX (OC 316): -96.5256
- AMAX (OCI-AML2): -96.7921
- AMAX (OCI-AML3): -95.7952
- AMAX (OCI-AML5): -97.923
- AMAX (OCI-M1): -95.2925
- AMAX (ONCO-DG-1): -96.4992
- AMAX (OS-RC-2): -96.3701
- AMAX (OUMS-23): -95.8674
- AMAX (OV7): -92.7444
- AMAX (P31/FUJ): -96.7178
- AMAX (PA-TU-8988S): -97.262
- AMAX (PE/CA-PJ41 (clone D2)): -95.4895
- AMAX (RI-1): -96.2187
- AMAX (RMUG-S): -96.7615
- AMAX (RVH-421): -95.9743
- AMAX (SF126): -95.9565
- AMAX (SK-N-SH): -96.5195
- AMAX (SNU-216): -96.337
- AMAX (SW620): -96.6127
- AMAX (SW837): -95.7546
- AMAX (SW948): -95.7047
- AMAX (SW 1783): -94.9618
- AMAX (T84): -98.3103
- AMAX (T98G): -96.5841
- AMAX (T-47D): -97.6577
- AMAX (THP-1): -96.3023
- AMAX (U-118 MG): -95.817
- AMAX (UACC-257): -95.0265
- AMAX (VMRC-RCW): -96.9199
- AMAX (YMB-1): -91.0668
- Amax (high-concentration effect level) (across all cell lines of the panel, 72 h): −95% to −100
- AMAX (all cell lines of a selection from the panel (Fig. 3b)): ≤ −95%

— publication PMC5078989, “Targeted inhibition of the COP9 signalosome for treatment of cancer” (Nature Communications, 2016)
